For data set [1], the target named is T1, PARG (Homo sapiens, UniProt Q86W56). Briefly: In vitro inhibition of PARG. Format: biochemical. Also noted: H. sapiens full length PARG; trigger factor (TF) fusion of the pColdTF vector; made in house; host or cells: Rosetta2 (DE3) E. coli. The following applies: dose-response, FIG. 4C.
Data set [2] concerns the target T2, ARH3 (Homo sapiens, UniProt Q9NX46).
T2 sequence (Q9NX46 1-363): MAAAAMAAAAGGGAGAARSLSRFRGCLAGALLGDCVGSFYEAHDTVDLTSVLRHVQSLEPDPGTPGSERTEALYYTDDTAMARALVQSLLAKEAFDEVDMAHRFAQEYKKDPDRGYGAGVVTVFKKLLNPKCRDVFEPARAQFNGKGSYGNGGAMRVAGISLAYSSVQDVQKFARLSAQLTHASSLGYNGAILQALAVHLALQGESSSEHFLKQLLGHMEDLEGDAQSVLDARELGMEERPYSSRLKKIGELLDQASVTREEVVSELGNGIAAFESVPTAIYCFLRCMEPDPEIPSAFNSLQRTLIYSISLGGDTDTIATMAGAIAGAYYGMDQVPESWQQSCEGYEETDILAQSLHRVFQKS
Description: In vitro inhibition of purified ARH3. Format: biochemical. The following applies: mixture of anomers. Details: H. sapiens full length ARH3; His6 (N); made in house; host or cells: Rosetta2 (DE3) E. coli.

The next data set addresses T3, T. thermophila PARG (Tetrahymena thermophila, UniProt I6L8L7).
T3 construct: made in house; host or cells: Rosetta2 (DE3) E. coli
T3 sequence (I6L8L7 1-457): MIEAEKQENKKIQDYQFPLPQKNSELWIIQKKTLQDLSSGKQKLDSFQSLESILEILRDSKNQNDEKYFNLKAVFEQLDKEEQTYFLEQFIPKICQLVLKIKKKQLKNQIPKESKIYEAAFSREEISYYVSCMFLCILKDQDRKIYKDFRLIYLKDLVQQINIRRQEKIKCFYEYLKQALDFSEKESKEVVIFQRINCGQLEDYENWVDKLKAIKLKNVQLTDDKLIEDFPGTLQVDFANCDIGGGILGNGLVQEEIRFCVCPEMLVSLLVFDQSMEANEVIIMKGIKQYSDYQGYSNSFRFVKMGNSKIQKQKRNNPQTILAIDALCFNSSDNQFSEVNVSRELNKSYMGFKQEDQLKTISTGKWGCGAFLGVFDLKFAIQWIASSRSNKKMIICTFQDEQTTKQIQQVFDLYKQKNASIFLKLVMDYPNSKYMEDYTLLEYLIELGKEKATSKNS
It is filed as biochemical. The following applies: ttPARG.

The target in data set [3] is T4, H. sapiens full length PARG (Homo sapiens, UniProt Q86W56).
T4 construct: H. sapiens full length PARG; trigger factor (TF) fusion of the pColdTF vector; made in house; host or cells: Rosetta2 (DE3) E. coli
T4 sequence (Q86W56 whole entry, the tested form may be a part): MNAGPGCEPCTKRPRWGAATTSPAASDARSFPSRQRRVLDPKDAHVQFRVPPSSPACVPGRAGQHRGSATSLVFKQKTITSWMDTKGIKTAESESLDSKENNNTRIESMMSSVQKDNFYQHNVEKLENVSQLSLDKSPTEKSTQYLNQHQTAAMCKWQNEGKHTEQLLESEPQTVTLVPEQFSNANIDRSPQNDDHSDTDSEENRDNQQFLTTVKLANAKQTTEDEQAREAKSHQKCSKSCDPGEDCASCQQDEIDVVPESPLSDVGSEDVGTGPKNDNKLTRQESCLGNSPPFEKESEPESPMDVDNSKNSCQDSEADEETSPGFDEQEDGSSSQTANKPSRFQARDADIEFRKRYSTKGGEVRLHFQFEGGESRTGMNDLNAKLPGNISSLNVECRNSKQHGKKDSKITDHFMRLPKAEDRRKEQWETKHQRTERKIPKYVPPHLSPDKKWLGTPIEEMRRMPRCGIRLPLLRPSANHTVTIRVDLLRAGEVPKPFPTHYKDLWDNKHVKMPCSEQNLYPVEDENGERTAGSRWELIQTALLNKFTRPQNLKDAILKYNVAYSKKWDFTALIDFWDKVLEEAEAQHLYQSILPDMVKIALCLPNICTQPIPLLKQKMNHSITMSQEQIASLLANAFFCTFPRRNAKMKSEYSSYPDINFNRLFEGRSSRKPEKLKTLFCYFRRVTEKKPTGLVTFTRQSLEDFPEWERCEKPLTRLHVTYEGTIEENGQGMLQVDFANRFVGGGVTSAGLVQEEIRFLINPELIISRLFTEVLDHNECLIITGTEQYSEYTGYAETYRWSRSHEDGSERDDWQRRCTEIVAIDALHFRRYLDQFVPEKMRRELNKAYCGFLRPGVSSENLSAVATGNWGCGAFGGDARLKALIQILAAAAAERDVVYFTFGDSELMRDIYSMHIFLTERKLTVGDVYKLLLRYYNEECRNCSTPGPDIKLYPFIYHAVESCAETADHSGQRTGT
Description: In vitro enzyme kinetics of substrate hydrolysis. It is filed as biochemical. The following applies: hPARG.

Data set [4] has as its system ARH3. Description: Substrate hydrolysis in lysate of ARH3 knockout U2OS cells. Format: biochemical. As to conditions: U2OS cell lysate, 200 μM substrate. As to the method:
(§1) The ability of TFMU-IDPr to selectively report on ARH3 activity within the cellular milieu would be an important application of these probes. […] First, the hydrolysis of TFMU-IDPr was evaluated in cell lysate from a ARH3 knockout isogenic cell line pair derived from U2OS cells. […] Second, substrate processing was evaluated in the presence of the selective PARG inhibitor PDD00017273. […] Taken together, these experiments indicate that TFMU-IDPr is selectively cleaved by ARH3 in cell lysate, and TFMU-ADPr is cleaved only by ARH3 and PARG.
(§2) Cells were cultured in T75 flasks in appropriate medium. Cells were trypsinized, and scrapped (if necessary), and counted. 1×10^6 cells were harvested and washed with cold PBS 2×. Cell pellet was lysed by addition of activity lysis buffer (150 μL) and incubated on ice for 30 min. Lysate was clarified by centrifugation at 14,300×g at 4° C. for 10 min. Supernatant was transferred to chilled, empty 500 μL tube. Total protein content of lysate was evaluated by BCA assay. ARH3 expression level was determined by western blotting analysis. 5 μL lysate was added to well of 384-well black plate. 45 μL TFMU-IDPr (200 μM final) in reaction buffer was added to well. Reaction progress was monitored by fluorescent plate reader (ex 385 nm, cutoff 495, em 502 nm, 6 reads/well, high gain).

The conditions of data set [5]: leaving groups pNP and TFMU; cited from earlier work.
The target of data set [6] is T5, H. sapiens full length ARH3 (Homo sapiens, UniProt Q9NX46).
T5 sequence (Q9NX46 1-363): T2 sequence (Q9NX46 1-363)
Briefly: In vitro enzyme kinetics of substrate hydrolysis.

Data set [7] has as its system ARH3. Description: Cell lysate ARH3 activity assay (survey of cell lines, TFMU-IDPr hydrolysis). Format: biochemical. The following applies: MEF cell lysate, 200 μM TFMU-IDPr. On the procedure: (§3) Cells were cultured in T75 flasks in appropriate medium. Cells were trypsinized, and scrapped (if necessary), and counted. 1×10^6 cells were harvested and washed with cold PBS 2×. Cell pellet was lysed by addition of activity lysis buffer (150 μL) and incubated on ice for 30 min. Lysate was clarified by centrifugation at 14,300×g at 4° C. for 10 min. Supernatant was transferred to chilled, empty 500 μL tube. Total protein content of lysate was evaluated by BCA assay. […] Reaction progress was monitored by fluorescent plate reader (ex 385 nm, cutoff 495, em 502 nm, 6 reads/well, high gain).

Data set [8] deals with T1, PARG. Briefly: Substrate hydrolysis in U2OS cell lysate in presence of PARG inhibitor PDD00017273. Format: biochemical. Also noted: endogenous in cells; host or cells: U2OS (parental and ARH3 knockout) lysate. On the procedure:
as §1, §2

In data set [9] the target is T2, ARH3. Briefly: Cell lysate ARH3 activity assay (survey of cell lines, TFMU-IDPr hydrolysis). Format: biochemical. Details: endogenous in cells. The following applies: 200 μM TFMU-IDPr. On the procedure: as §3
Substrate in data set [10]: O=c1[nH]cnc2c1ncn2[C@@H]1OC(COP(=O)(O)OP(=O)(O)OCC2OC(Oc3ccc([N+](=O)[O-])cc3)[C@H](O)[C@@H]2O)[C@@H](O)[C@H]1O
Briefly: purified protein, by the assay type. As to conditions: other: hARH3.

Substrate in data set [11]: O=c1cc(C(F)(F)F)c2ccc(O[C@H]3O[C@H](COP(=O)(O)OP(=O)(O)OC[C@H]4O[C@@H](n5cnc6c(=O)[nH]cnc65)[C@H](O)[C@@H]4O)[C@@H](O)[C@H]3O)cc2o1
Briefly: purified protein, by the assay type. As to conditions: other: hARH3.

We go through eight molecules from patent publication US12235275B2, “Fluorescent substrates for poly(ADP-ribosyl) hydrolases” (The Board of Trustees of the University of Illinois, priority 2018, dated 2025).

T1 sequence (Q86W56 whole entry, the tested form may be a part): as above

As for `Nc1ncnc2c1ncn2[C@@H]1O[C@H](COP(=O)(O)OP(=O)(O)OC[C@H]2NC[C@H](O)[C@@H]2O)[C@@H](O)[C@H]1O` [ADP-HPD], the “inhibition of PARG” value at PARG [1] was “inhibits both PARG and ARH3”.
As for `N=C(NCCCC(N)C(=O)O)NC1OC(COP(=O)(O)OP(=O)(O)OCC2OC(n3cnc4c(N)ncnc43)C(O)C2O)C(O)C1O` (stereo not shown) [ADPr-Arg, ADP-ribosyl arginine], on PARG [1], the “inhibition of PARG” value was “markedly reduced activity against PARG”. Further, the Ki – broadly, the dissociation constant of the complex between target and ligand, obtained from inhibition or displacement – at ARH3 [2] was 18 ± 2 nM.
`Nc1ncnc2c1ncn2[C@@H]1O[C@H](COP(=O)(O)OP(=O)(O)OC[C@H]2O[C@H](Oc3ccc4c(C(F)(F)F)cc(=O)oc4c3)[C@H](O)[C@@H]2O)[C@@H](O)[C@H]1O` [TFMU-ADPr]: the Vmax (in general, the top rate of the reaction or transport when substrate is in excess) on T. thermophila PARG was determined as 28.6 ± 0.6 µmol/min/mg; in data set [3], 0.84 ± 0.05 µmol/min/mg; in data set [6] (hARH3), 1.61 ± 0.02 µmol/min/mg. Further, in the data set on ARH3 [4], the “effect of ARH3 knockout on substrate hydrolysis” value was “only partially decreased”. In data set [5], the “pKa of the leaving group” value is listed as 7.26.
As for `O=c1cc(C(F)(F)F)c2ccc(O[C@H]3O[C@H](COP(=O)(O)OP(=O)(O)OC[C@H]4O[C@@H](n5cnc6c(=O)[nH]cnc65)[C@H](O)[C@@H]4O)[C@@H](O)[C@H]3O)cc2o1` [TFMU-IDPr], the “ARH3 Activity” value in the data set on ARH3 [7] was 153 ± 38 milli-units/min/μg; at ARH3 [9] (A549 cell lysate), 67 ± 23 milli-units/min/μg; at ARH3 [9] (D54 cell lysate) it was 147 ± 34 milli-units/min/μg; at ARH3 [9] (Daudi cell lysate), 27 ± 35 milli-units/min/μg; at ARH3 [9] (HCC38 cell lysate), 100 ± 19 milli-units/min/μg; at ARH3 [9] (HCC1937 cell lysate) it was 76 ± 4 milli-units/min/μg. Besides, the “ARH3 Activity” value is recorded as 173 ± 17 milli-units/min/μg on ARH3 [9] (HCT-116 cell lysate); 192 ± 20 milli-units/min/μg on ARH3 [9] (HEK cell lysate); 105 ± 20 milli-units/min/μg on ARH3 [9] (HFF-1 cell lysate); 159 ± 18 milli-units/min/μg on ARH3 [9] (HeLa cell lysate); 215 ± 19 milli-units/min/μg on ARH3 [9] (HepG2 cell lysate); 170 ± 34 milli-units/min/μg on ARH3 [9] (Hs578t cell lysate). In addition, the “ARH3 Activity” value at ARH3 [9] (Jurkat cell lysate) is 36 ± 7 milli-units/min/μg; at ARH3 [9] (MCF 7 cell lysate), 92 ± 40 milli-units/min/μg; on ARH3 [9] (MCF10A cell lysate (grown with cholera toxin)), −5 ± 12 milli-units/min/μg; at ARH3 [9] (MIA PaCa-2 cell lysate) it was 157 ± 25 milli-units/min/μg; on ARH3 [9] (SK-MEL-5 cell lysate), 87 ± 13 milli-units/min/μg; on ARH3 [9] (T98G cell lysate), 139 ± 7 milli-units/min/μg. For the same molecule, the “ARH3 Activity” value at ARH3 [9] (U87 cell lysate) worked out at 290 ± 52 milli-units/min/μg; at ARH3 [9] (U937 cell lysate), 137 ± 34 milli-units/min/μg. Besides, the “substrate hydrolysis in presence of PARG inhibitor PDD00017273” value on PARG [8] (U2OS cell lysate, 200 μM TFMU-IDPr) is reported as “unaffected”. Besides, the Km (on T. thermophila PARG; in data set [3]) was greater than 1500 µM in each case. In the data set on ARH3 [4], the “effect of ARH3 knockout on substrate hydrolysis” value is listed as “near complete loss”. The “selectivity for processing by ARH3 over PARG” value in data set [6] (human ARH3 over human PARG, FIG. 2C) is “confirmed”.
Regarding `Nc1ncnc2c1ncn2[C@@H]1O[C@H](COP(=O)(O)OP(=O)(O)OC[C@H]2O[C@@H](Oc3ccc([N+](=O)[O-])cc3)[C@H](O)[C@@H]2O)[C@@H](O)[C@H]1O` [pNP-ADPr], the Km (usually the substrate concentration at which the rate is half of its maximum) amounted to 210 ± 10 µM on T. thermophila PARG and 3.2 ± 0.6 µM in [6] (hARH3). The values for the maximal velocity (Vmax) (at T. thermophila PARG; in data set [6] (hARH3)) were 16.9 ± 0.5 µmol/min/mg and 1.7 ± 0.1 µmol/min/mg, respectively. Moreover, the “stereoselectivity of hydrolysis, α versus β anomer” value at T. thermophila PARG (FIG. 5C) was “selectively hydrolyzed the α anomer of pNP-ADPr over the β anomer”; in data set [6] (hARH3, FIG. 5D) it was “selectively hydrolyzed the α anomer of pNP-ADPr over the β anomer”. Further, the “pKa of the leaving group” value in [5] is 7.15.
In the case of `O=c1[nH]cnc2c1ncn2[C@@H]1OC(COP(=O)(O)OP(=O)(O)OCC2OC(Oc3ccc([N+](=O)[O-])cc3)[C@H](O)[C@@H]2O)[C@@H](O)[C@H]1O` (stereo partly shown) [pNP-IDPr], at T. thermophila PARG, the Km was greater than 1500 µM.
PDD00017273 [reference compound]: the “inhibition of TFMU-ADPr hydrolysis” value on PARG [8] (ARH3−/− U2OS cell lysate, 200 μM TFMU-ADPr) is on record as “completely abolished”.

B1: H. sapiens full length ARH3 (Homo sapiens) (protein)
chain: T2 sequence (Q9NX46 1-363)
As to B1, in [10], the Km came to 410 ± 20 µM and the maximal velocity (Vmax) came to 5.2 µmol/min/mg. In data set [11], the Michaelis constant (Km) was 312 ± 30 µM and the Vmax turned out to be 1.79 µmol/min/mg.
